Experimental findings from US6638953B2, “Indole derivatives as 5-HT receptor antagonist” (SmithKline Beecham p.l.c., priority 1995, dated 2003) are described below.

Each structure is given as a SMILES string.

In general, melting point refers to the temperature, or range, at which the solid turns liquid. For the compound `COc1cc2c(cc1C(F)(F)F)N(C(=O)Nc1cccc(-c3ccc(CN(C)C)cc3)c1)CC2` [Example 98], the melting point lay in the range of 209 to 211 °C. Under `COc1cc2c(cc1C(F)(F)F)N(C(=O)Nc1cccc(-c3cccc(CN(C)C)c3)c1)CC2` [Example 99] stands 185 to 187 °C. The same measure for `COc1cc2c(cc1C(F)(F)F)N(C(=O)Nc1cccc(-c3noc(CN(C)C)n3)c1)CC2` [Example 100]: 154 to 155 °C. `COc1cc2c(cc1C(F)(F)F)N(C(=O)Nc1cccc(-c3ccc[nH]3)c1)CC2` [Example 102] gave a melting point of over 240 °C. With `Cc1cc2c(cc1C(F)(F)F)N(C(=O)Nc1cccc(-c3cccnc3)c1)CC2` [Example 103], the melting point lay within 208 to 210 °C. `C=Cc1cc(NC(=O)N2CCc3cc(OC)c(C(F)(F)F)cc32)cc(-c2cccnc2)c1` [Example 104] registered a melting point of 138 to 140 °C. `COc1cc2c(cc1C(F)(F)F)N(C(=O)Nc1cc(-c3cccnc3)cc(C(F)(F)F)c1)CC2` [Example 105] displayed a melting point of 220 to 222 °C. The same measure for `COc1cc2c(cc1C(F)(F)F)N(C(=O)Nc1cc(Cl)cc(-c3cccnc3)c1)CC2` [Example 106]: 183 to 185 °C; for `COc1cc2c(cc1C(F)(F)F)N(C(=O)Nc1cc(C(C)=O)cc(-c3cccnc3)c1)CC2` [Example 107]: 174 to 176 °C. Under `COc1cc2c(cc1C(F)(F)F)N(C(=O)Nc1cc(-c3cccnc3)c(OC)c(C(F)(F)F)c1)CC2` [Example 108] stands 180 to 181 °C. The same measure for `COc1cc2c(cc1C(F)(F)F)N(C(=O)Nc1ccc(C)c(-c3cnccc3C)c1)CC2` [Example 109]: 153 to 155 °C; for `COc1cc2c(cc1C(F)(F)F)N(C(=O)Nc1cccc(-c3cccnc3C)c1)CC2` [Example 110]: 179 to 180 °C; for `COc1cc2c(cc1C(F)(F)F)N(C(=O)Nc1cccc(-c3c(C)ccnc3C)c1)CC2` [Example 111]: 202 to 204 °C. Compound `COc1cc2c(cc1C(F)(F)F)N(C(=O)Nc1cccc(-c3ccc(C)nc3)c1)CC2` [Example 112] displayed a melting point of 228 to 230 °C.

In the case of `COc1cc2c(cc1C(F)(F)F)N(C(=O)Nc1cccc(-c3ccnc(C)n3)c1)CC2` [Example 113], the melting point is over 220 °C.

`COc1cc2c(cc1C(F)(F)F)N(C(=O)Nc1cc(-c3cccnc3)cc(-c3cccnc3)c1)CC2` [Example 114]: the melting point is 155 to 156 °C.

As to `COc1cc2c(cc1C(F)(F)F)N(C(=O)Nc1cc(-c3ccncc3)cc(-c3cccnc3)c1)CC2` [Example 115], the melting point lay in the range of 153 to 154 °C. The same measure for `COc1cc2c(cc1C(F)(F)F)N(C(=O)Nc1cc(F)cc(-c3ccc(C)nc3)c1)CC2` [Example 116]: 213 to 215 °C. The same measure for `COc1cc2c(cc1C(F)(F)F)N(C(=O)Nc1cccc(-c3cnc(C)cc3C)c1)CC2` [Example 117]: 161 to 162 °C; for `COc1cc2c(cc1C(F)(F)F)N(C(=O)Nc1cc(F)cc(-c3cccnn3)c1)CC2` [Example 118]: 230 to 231 °C.

Compound `COc1cc2c(cc1C(F)(F)F)N(C(=O)Nc1cccc(-c3cncnc3)c1)CC2` [Example 119] returned a melting point of 245 to 250 °C.

For `COc1cc2c(cc1C(F)(F)F)N(C(=O)Nc1cccc(-c3cnccn3)c1)CC2` [Example 120], the melting point was 208 to 209 °C. Turning to `COc1cc2c(cc1C(F)(F)F)N(C(=O)Nc1cccc(-c3ccc(C)nn3)c1)CC2` [Example 121], the melting point fell in the range of 229 to 231 °C.

Compound `COc1cc2c(cc1C(F)(F)F)N(C(=O)Nc1cc(OC(F)(F)F)cc(-c3cccnc3)c1)CC2` [Example 122] registered a melting point of 168 to 170 °C. Under `COc1cc2c(cc1C(F)(F)F)N(C(=O)Nc1ccc(OC(F)(F)F)c(-c3cccnc3)c1)CC2` [Example 123] stands 99 to 100 °C; under `COc1cc2c(cc1C(F)(F)F)N(C(=O)Nc1cc(F)c(C)c(-c3cccnc3)c1)CC2` [Example 124], 244 to 247 °C; under `COc1cc2c(cc1C(F)(F)F)N(C(=O)Nc1cc(F)cc(-c3cccnc3C)c1)CC2` [Example 125], 204 to 205 °C. The same measure for `COc1cc2c(cc1C(F)(F)F)N(C(=O)Nc1cc(F)cc(-c3cnccn3)c1)CC2` [Example 126]: 230 to 231 °C.

Compound `COc1cc2c(cc1C(F)(F)F)N(C(=O)Nc1cc(F)cc(-c3cnc(C)cc3C)c1)CC2` [Example 127] displayed a melting point of 215 to 218 °C. Compound `COc1cc2c(cc1C(F)(F)F)N(C(=O)Nc1cc(F)c(C)c(N3C=CC=NC3)c1)CC2` [Example 128] showed a melting point of 188 to 189 °C. For the compound `Cc1cc2c(cc1Cl)N(C(=O)Nc1cc(F)c(C)c(-c3cccnc3)c1)CC2` [Example 129], the melting point was 233 to 235 °C. The same measure for `COc1cc2c(cc1C(F)(F)F)N(C(=O)Nc1cncc(-c3cncnc3)c1)CC2` [Example 130]: 120 to 121 °C. In turn, `Cc1cc2c(cc1Cl)N(C(=O)Nc1cc(F)cc(-c3cnccn3)c1)CC2` [Example 131] gave a melting point of 226 to 227 °C. The same measure for `Cc1cc2c(cc1Cl)N(C(=O)Nc1cc(F)cc(-c3cncnc3)c1)CC2` [Example 132]: 222 to 226 °C; for `Cc1cc2c(cc1Cl)N(C(=O)Nc1cc(F)cc(-c3cccnc3C)c1)CC2` [Example 134]: 205 to 206 °C. The same measure for `O=C(Nc1ccc(F)c(-c2cccnc2)c1)N1CCc2cc(Cl)c(Cl)cc21` [Example 135]: 200 to 202 °C; for `Cc1cc2c(cc1Cl)N(C(=O)Nc1ccc(F)c(-c3cccnc3)c1)CC2` [Example 136]: 185 to 186 °C. Under `COc1cc2c(cc1C(F)(F)F)N(C(=O)Nc1cccc(OCc3cccnc3)c1)CC2` [Example 137] stands 202 to 204 °C.

Compound `COc1cc2c(cc1C(F)(F)F)N(C(=O)Nc1ccc(OCc3cccnc3)cc1)CC2` [Example 138] returned a melting point of 215 to 217 °C.

On to `COc1cc2c(cc1C(F)(F)F)N(C(=O)Nc1cccc(COc3cccnc3)c1)CC2` [Example 139], for which the melting point lay within 188 to 190 °C. As to `COc1cc2c(cc1C(F)(F)F)N(C(=O)Nc1cnc(-c3cccnc3)c(C)c1)CC2` [Example 140], the melting point lay in the range of 230 to 232 °C. Under `CSc1cc2c(cc1C(F)(F)F)N(C(=O)Nc1cnc(-c3cccnc3)c(Cl)c1)CC2` [Example 141] stands 245 to 250 °C; under `CSc1cc2c(cc1C(F)(F)F)N(C(=O)Nc1ccc(-c3cncc(Cl)c3)nc1)CC2` [Example 142], 193 to 195 °C. The same measure for `COc1cc2c(cc1C(F)(F)F)N(C(=O)Nc1ccc(Oc3cccnc3)cc1)CC2` [Example 143]: 193 to 194 °C.

Compound `CSc1cc2c(cc1C(F)(F)F)N(C(=O)Nc1ccc(Sc3cccnc3)nc1)CC2` [Example 144] gave a melting point of 204 to 206 °C. The same measure for `CSc1cc2c(cc1C(F)(F)F)N(C(=O)Nc1ccc(Sc3ccncc3)nc1)CC2` [Example 145]: 214 to 216 °C; for `COc1cc2c(cc1C(F)(F)F)N(C(=O)Nc1ccc(Sc3ccncc3)nc1)CC2` [Example 146]: 204 to 206 °C.
